Results published in patent publication US20090018131A1, “QUINAZOLINE DERIVATIVES AS P13 KINASE INHIBITORS” (priority 2007, published 2009).

biological target: T1, PI3Kα (Homo sapiens, UniProt P42336); assay: PI3K Alpha Leadseeker SPA Assay; type: biochemical; details: in at least one experimental run; read-out: IC50 value against PI3Kα
T1 construct: His
Method: Compounds of the present invention were tested according to the following assays and found as inhibitors of PI3 kinases, particularly PI3Kα. The exemplified compounds were tested and found active against PI3Kα. The IC50's ranged from about 1 nM to 10 μM.
SPA imaging beads are microspheres containing scintillant which emit light in the red region of the visible spectrum. As a result, these beads are ideally suited to use with a CCD imager such as the Viewlux. The Leadseeker beads used in this system are polystyrene beads that have been coupled with polyethyleneimine. When added to the assay mixture, the beads absorb both the substrate (PIP2) and product (PIP3). Adsorbed P^33—PIP3 will cause an increase in signal, measured as ADUs (analog to digital units). This protocol details the use of the PEI-PS Leadseeker beads for assays using His-p110/p85 PI3K alpha.
Solid compounds are typically plated with 0.1 μl of 100% DMSO in all wells (except column 6 and 18) of a 384-well, flat bottom, low volume plate (Greiner 784075). The compounds are serially diluted (3-fold in 100% DMSO) across the plate from column 1 to column 12 and column 13 to column 24 and leave column 6 and 18 containing only DMSO to yield 11 concentrations for each test compound.
The assay buffer contains MOPS (pH 6.5), CHAPS, and DTT. PI3K alpha and PIP2 (L-alpha-D-myo-Phosphatidylinositol 4,5-bisphosphate [PI(4,5)P2]3-O-phospho linked, D(+)-sn-1,2-di-O-octanoylglyceryl, CellSignals # 901) are mixed and incubated in the plate with compound for 30 min prior to starting the reaction with the addition of P^33-ATP and MgCl2 (reagents added using Zoom). Enzyme-free wells (column 18) are typically done to determine the low control. PEI-PS Leadseeker beads in PBS/EDTA/CHAPS are added (by Multidrop) to quench the reaction, and the plates are allowed to incubate for at least one hour (typically overnight) before centrifugation. The signal is determined using a Viewlux detector and is then imported into curve fitting software (Activity Base) for construction of concentration response curves. The percent inhibition of activity was calculated relative to high controls (C1, 0.1 μl DMSO in column 6, rows A-P)) and low controls (C2, 5 μl of 40 uM PIP2 in buffer in column 18, rows A-P) using, 100*(1-(U1-C2)/(C1-C2)). The concentration of test compound yielding 50% inhibition was determined using the equation, y=((Vmax*x)/(K+x))+Y2, where “K” was equal to the IC50. The IC50 values were converted to pIC50 values, i.e., −log IC50 in Molar concentration.

T1 sequence (P42336 whole entry, species assumed): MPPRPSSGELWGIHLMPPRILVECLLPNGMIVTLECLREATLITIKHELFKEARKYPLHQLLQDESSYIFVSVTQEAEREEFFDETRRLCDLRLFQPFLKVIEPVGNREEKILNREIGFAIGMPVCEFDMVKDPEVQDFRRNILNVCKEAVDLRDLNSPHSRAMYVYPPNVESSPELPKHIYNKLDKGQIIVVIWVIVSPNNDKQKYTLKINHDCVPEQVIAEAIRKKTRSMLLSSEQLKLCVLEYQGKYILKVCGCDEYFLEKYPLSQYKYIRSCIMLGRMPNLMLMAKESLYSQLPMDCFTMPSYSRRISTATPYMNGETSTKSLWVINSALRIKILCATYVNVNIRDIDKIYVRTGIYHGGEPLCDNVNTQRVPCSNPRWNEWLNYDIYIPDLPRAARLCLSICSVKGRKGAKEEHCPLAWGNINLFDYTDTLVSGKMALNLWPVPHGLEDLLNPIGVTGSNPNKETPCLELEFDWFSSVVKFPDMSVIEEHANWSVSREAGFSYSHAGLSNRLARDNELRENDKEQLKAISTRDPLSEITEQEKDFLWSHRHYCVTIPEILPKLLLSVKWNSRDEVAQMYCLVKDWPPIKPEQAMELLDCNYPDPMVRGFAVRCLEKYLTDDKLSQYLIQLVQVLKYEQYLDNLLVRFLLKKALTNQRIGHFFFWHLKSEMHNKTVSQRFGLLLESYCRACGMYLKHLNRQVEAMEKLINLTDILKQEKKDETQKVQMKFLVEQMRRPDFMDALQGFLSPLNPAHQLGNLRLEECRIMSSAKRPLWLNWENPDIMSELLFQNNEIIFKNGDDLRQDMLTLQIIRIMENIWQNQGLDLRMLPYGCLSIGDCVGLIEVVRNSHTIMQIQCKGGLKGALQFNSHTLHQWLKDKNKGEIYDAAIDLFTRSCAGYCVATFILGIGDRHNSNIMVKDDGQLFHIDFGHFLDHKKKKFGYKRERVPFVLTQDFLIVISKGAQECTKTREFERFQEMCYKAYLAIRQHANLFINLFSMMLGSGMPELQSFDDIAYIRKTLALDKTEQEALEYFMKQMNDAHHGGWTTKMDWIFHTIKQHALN
T1 sequence (P27986 whole entry partner, species assumed): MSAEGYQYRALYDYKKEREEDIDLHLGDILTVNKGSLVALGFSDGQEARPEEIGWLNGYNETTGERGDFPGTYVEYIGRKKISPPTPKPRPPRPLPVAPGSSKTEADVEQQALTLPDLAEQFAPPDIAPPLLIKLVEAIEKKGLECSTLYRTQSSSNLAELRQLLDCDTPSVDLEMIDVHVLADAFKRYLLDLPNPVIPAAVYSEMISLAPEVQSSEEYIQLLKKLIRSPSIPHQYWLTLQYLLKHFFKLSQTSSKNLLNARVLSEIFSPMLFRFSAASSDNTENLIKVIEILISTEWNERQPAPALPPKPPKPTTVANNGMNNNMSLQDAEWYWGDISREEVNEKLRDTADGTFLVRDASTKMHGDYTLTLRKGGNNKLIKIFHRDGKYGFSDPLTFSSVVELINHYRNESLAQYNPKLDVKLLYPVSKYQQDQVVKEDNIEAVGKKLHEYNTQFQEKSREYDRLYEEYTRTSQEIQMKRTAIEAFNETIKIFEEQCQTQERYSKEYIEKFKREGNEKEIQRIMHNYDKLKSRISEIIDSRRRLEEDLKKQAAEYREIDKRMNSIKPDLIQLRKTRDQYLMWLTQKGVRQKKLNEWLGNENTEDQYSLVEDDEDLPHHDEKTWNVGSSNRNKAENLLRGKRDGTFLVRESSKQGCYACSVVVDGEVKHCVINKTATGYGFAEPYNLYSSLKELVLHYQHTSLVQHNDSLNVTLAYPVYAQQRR

Structure (SMILES)	IC50 [nM]
CN(C)S(=O)(=O)c1cc(-c2ccc3nc(NCCO)nc(-c4ccncc4)c3c2)cnc1N [Example 1, 2-amino-5-[2-[(2-hydroxyethyl)amino]-4-(4-pyridinyl)-6-quinazolinyl]-N,N-dimethyl-3-pyridinesulfonamide]	7.9
OCc1cccc(Nc2nc(-c3ccncc3)c3cc(-c4cnc5[nH]ccc5c4)ccc3n2)c1 [Example 2, (3-{[4-(4-pyridinyl)-6-(1H-pyrrolo[2,3-b]pyridin-5-yl)-2-quinazolinyl]amino}phenyl)methanol]	100
c1nc(N2CCOCC2)c2cc(-c3cnc4[nH]ccc4c3)ccc2n1 [Example 15, 4-(4-morpholinyl)-6-(1H-pyrrolo[2,3-b]pyridin-5-yl)quinazoline]	50
NS(=O)(=O)c1cncc(-c2ccc3ncnc(N4CCCCC4)c3c2)c1 [Example 16, 5-[4-(1-piperidinyl)-6-quinazolinyl]-3-pyridinesulfonamide]	40
COc1ccc(Nc2ncnc3ccc(-c4cncc(NS(=O)(=O)c5ccc(F)cc5F)c4)cc23)cc1Cl [Example 73, N-[5-(4-{[3-chloro-4-(methyloxy)phenyl]amino}-6-quinazolinyl)-3-pyridinyl]-2,4-difluorobenzenesulfonamide]	2.5

Stronger by IC50, values ahead:

IC50 [nM]	Structure (SMILES)
1.4	CC(=O)Nc1nc(-c2ccncc2)c2cc(-c3cnc(Cl)c(NS(=O)(=O)c4ccccc4)c3)ccc2n1 [Example 6, N-[6-{6-chloro-5-[(phenylsulfonyl)amino]-3-pyridinyl}-4-(4-pyridinyl)-2-quinazolinyl]acetamide]
1	CCN1CCN(c2ncnc3ccc(-c4cncc(NS(=O)(=O)c5ccc(F)cc5F)c4)cc23)CC1=O [Example 61, N-{5-[4-(4-ethyl-3-oxo-1-piperazinyl)-6-quinazolinyl]-3-pyridinyl}-2,4-difluorobenzenesulfonamide]
